Measurements taken from publication PMC7407272, “Induction of Lysosome Membrane Permeabilization as a Therapeutic Strategy to Target Pancreatic Cancer Stem Cells” (Cancers, 2020).

Experiments:
Assay in all cases: KINOMEscan
Assay type in all cases: binding
Details in all cases: read-out: % Ctrl
RIPK5 = target: T1, RIPK5 (Homo sapiens, UniProt Q6XUX3)
T1 construct: purchased DiscoveRx KINOMEscan

RET(V804M) = target: T2, RET(V804M) (Homo sapiens, UniProt P07949, V804M)
T2 construct: purchased DiscoveRx KINOMEscan

PDPK1 = target: T3, PDPK1 (Homo sapiens, UniProt O15530)
T3 construct: purchased DiscoveRx KINOMEscan

BLK = target: T4, BLK (Homo sapiens, UniProt P51451)
T4 construct: purchased DiscoveRx KINOMEscan

EPHA4 = target: T5, EPHA4 (Homo sapiens, UniProt P54764)
T5 construct: purchased DiscoveRx KINOMEscan

PRP4 = target: T6, PRP4 (Homo sapiens, UniProt Q13523)
T6 construct: purchased DiscoveRx KINOMEscan
Experimental: (§1) The KINOMEscan ^TM screening platform employs an active site-directed competition binding assay to quantitatively measure interactions between test compound and 468 human kinases and disease relevant mutant variants. […] The assay was performed at DiscoveRx Corporation.

CDC2L5 = target: T7, CDC2L5 (Homo sapiens, UniProt Q14004)
T7 construct: purchased DiscoveRx KINOMEscan
Experimental: as §1

RIOK1 = target: T8, RIOK1 (Homo sapiens, UniProt Q9BRS2)
T8 construct: purchased DiscoveRx KINOMEscan

MET(M1250T) = target: T9, MET(M1250T) (Homo sapiens, UniProt P08581, M1250T)
T9 construct: purchased DiscoveRx KINOMEscan

ABL1(T315I)-P = target: T10, ABL1(T315I)-P (Homo sapiens, UniProt P00519, T315I)
T10 construct: purchased DiscoveRx KINOMEscan

RSK2(KD1-N-t.) = target: T11, RSK2(KD1-N-t.) (Homo sapiens, UniProt P51812)
T11 construct: RSK2(KD1-N-t.); purchased DiscoveRx KINOMEscan

PIK3CA(I800L) = target: T12, PIK3CA(I800L) (Homo sapiens, UniProt P42336, I800L)
T12 construct: purchased DiscoveRx KINOMEscan

LZK = target: T13, LZK (Homo sapiens, UniProt O43283)
T13 construct: purchased DiscoveRx KINOMEscan

GCN2(KD2,S808G) = target: T14, GCN2(KD2,S808G) (Homo sapiens, UniProt Q9P2K8, S808G)
T14 construct: purchased DiscoveRx KINOMEscan

PIK3CA(E545K) = target: T15, PIK3CA(E545K) (Homo sapiens, UniProt P42336, E545K)
T15 construct: purchased DiscoveRx KINOMEscan

MAP3K1 = target: T16, MAP3K1 (Homo sapiens, UniProt Q13233)
T16 construct: purchased DiscoveRx KINOMEscan
T16 sequence (Q13233 whole entry): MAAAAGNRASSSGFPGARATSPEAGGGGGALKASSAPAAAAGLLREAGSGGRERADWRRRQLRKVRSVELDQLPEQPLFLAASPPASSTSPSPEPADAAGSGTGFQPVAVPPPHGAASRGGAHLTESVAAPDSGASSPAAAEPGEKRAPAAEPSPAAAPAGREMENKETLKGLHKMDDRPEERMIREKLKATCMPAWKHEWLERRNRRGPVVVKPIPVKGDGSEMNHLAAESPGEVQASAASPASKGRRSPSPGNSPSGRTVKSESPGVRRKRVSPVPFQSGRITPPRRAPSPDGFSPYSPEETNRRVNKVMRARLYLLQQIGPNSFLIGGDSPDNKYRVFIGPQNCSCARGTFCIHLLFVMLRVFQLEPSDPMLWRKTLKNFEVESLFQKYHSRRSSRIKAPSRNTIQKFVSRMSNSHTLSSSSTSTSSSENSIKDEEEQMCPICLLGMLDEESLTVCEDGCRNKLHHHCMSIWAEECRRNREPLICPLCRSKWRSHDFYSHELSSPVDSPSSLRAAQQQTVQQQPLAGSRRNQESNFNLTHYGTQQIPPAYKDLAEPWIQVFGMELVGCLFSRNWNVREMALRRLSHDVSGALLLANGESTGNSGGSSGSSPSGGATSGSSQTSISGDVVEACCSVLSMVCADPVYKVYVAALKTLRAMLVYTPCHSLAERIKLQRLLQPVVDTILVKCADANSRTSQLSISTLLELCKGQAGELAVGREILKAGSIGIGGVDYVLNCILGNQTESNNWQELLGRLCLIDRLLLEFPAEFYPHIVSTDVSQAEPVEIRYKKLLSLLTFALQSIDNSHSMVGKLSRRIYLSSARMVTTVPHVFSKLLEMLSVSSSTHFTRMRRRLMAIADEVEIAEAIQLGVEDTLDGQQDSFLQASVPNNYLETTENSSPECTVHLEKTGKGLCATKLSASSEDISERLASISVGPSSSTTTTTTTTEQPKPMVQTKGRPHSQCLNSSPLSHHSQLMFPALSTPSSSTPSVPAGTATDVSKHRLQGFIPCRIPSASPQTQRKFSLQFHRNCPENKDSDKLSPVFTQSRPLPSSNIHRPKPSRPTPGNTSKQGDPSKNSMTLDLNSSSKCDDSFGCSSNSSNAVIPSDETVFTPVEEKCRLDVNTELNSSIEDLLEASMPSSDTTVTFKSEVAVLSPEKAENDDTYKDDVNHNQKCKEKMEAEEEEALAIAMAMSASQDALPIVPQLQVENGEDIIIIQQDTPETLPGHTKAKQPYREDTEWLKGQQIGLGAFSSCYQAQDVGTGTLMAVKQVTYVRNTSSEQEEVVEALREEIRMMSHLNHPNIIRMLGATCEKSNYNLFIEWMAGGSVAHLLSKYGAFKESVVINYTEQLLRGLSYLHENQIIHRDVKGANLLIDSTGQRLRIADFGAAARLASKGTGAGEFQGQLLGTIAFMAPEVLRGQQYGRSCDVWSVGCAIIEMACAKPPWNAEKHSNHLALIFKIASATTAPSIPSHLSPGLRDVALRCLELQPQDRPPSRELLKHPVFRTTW

LRRK2 = target: T17, LRRK2 (Homo sapiens, UniProt Q5S007)
T17 construct: purchased DiscoveRx KINOMEscan

CLK4 = target: T18, CLK4 (Homo sapiens, UniProt Q9HAZ1)
T18 construct: purchased DiscoveRx KINOMEscan

ALK(L1196M) = target: T19, ALK(L1196M) (Homo sapiens, UniProt Q9UM73, L1196M)
T19 construct: purchased DiscoveRx KINOMEscan
T19 sequence (Q9UM73 19-1620 L1196M): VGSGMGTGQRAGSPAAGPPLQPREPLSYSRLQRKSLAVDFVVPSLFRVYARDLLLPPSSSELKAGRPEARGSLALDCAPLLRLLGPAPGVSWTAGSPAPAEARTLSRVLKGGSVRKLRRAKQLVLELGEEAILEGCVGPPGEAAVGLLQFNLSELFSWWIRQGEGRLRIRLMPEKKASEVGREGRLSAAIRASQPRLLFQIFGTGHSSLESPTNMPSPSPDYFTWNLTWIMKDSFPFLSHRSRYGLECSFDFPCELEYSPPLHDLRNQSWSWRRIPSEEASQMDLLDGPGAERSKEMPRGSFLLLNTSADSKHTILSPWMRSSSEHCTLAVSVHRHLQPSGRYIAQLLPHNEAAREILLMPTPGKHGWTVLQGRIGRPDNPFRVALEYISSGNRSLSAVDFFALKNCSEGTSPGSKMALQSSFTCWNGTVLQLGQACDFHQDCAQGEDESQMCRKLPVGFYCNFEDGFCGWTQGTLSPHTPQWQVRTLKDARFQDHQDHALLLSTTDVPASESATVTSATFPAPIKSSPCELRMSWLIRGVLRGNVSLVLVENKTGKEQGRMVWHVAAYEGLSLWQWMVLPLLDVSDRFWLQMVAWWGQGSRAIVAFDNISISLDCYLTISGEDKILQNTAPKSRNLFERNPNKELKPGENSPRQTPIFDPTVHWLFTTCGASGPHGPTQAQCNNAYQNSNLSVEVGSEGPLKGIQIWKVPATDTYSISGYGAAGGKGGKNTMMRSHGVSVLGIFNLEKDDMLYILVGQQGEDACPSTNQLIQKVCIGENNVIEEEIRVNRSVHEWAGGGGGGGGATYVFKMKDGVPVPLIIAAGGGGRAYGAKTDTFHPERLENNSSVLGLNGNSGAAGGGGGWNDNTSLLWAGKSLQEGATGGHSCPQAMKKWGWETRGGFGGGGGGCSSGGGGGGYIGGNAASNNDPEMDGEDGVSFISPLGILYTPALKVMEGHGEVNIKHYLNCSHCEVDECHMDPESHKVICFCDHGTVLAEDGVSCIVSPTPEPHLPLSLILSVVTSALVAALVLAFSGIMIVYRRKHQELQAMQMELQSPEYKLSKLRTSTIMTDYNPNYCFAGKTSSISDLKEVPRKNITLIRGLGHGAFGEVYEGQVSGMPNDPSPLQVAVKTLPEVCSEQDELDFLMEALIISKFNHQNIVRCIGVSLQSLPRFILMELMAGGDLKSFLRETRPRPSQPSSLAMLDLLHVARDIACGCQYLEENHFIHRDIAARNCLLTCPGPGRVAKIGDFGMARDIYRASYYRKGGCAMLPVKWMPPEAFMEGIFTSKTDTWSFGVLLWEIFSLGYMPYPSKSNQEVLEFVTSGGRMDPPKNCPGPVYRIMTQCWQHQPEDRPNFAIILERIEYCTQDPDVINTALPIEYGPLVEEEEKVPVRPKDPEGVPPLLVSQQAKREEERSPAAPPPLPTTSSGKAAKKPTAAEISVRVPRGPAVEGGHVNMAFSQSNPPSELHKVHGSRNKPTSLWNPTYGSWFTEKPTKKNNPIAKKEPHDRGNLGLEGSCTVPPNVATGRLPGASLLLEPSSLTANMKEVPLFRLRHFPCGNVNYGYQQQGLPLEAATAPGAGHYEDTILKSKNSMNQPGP

BRAF(V600E) = target: T20, BRAF(V600E) (Homo sapiens, UniProt P15056, V600E)
T20 construct: purchased DiscoveRx KINOMEscan
T20 sequence (P15056 whole entry V600E): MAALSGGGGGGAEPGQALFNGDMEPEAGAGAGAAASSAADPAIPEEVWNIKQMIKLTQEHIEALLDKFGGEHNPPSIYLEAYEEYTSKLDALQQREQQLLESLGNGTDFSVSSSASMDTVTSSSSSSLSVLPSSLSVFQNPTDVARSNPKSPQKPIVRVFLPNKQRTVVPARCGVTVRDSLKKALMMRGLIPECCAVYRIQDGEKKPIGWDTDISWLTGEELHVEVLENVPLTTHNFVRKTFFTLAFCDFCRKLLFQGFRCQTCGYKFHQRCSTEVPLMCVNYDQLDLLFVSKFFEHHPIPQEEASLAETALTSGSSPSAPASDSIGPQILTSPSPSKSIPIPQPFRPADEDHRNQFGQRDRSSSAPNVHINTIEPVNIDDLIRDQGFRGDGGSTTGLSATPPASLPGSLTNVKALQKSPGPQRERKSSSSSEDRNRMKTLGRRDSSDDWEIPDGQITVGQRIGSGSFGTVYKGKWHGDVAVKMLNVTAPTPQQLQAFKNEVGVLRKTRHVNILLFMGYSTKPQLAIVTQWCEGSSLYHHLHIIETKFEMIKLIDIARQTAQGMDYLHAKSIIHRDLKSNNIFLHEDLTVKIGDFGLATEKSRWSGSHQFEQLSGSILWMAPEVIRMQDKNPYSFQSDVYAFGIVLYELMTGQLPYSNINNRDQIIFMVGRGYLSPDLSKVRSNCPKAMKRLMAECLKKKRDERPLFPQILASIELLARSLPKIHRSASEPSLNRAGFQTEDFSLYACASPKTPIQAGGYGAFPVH

CAMKK2 = target: T21, CAMKK2 (Homo sapiens, UniProt Q96RR4)
T21 construct: purchased DiscoveRx KINOMEscan

MST2 = target: T22, MST2 (Homo sapiens, UniProt Q13188)
T22 construct: purchased DiscoveRx KINOMEscan

MAP4K4 = target: T23, MAP4K4 (Homo sapiens, UniProt O95819)
T23 construct: purchased DiscoveRx KINOMEscan

CSNK1A1L = target: T24, CSNK1A1L (Homo sapiens, UniProt Q8N752)
T24 construct: purchased DiscoveRx KINOMEscan
T24 sequence (Q8N752 whole entry): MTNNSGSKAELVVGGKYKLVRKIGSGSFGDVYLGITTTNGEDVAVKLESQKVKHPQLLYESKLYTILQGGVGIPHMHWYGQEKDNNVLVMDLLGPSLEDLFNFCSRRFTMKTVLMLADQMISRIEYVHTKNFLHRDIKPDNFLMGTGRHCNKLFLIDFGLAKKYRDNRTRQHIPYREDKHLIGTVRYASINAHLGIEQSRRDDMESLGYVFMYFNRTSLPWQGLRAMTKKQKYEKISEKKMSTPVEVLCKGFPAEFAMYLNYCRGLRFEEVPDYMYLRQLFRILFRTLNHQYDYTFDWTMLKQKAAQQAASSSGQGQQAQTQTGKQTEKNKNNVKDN

PKAC-alpha = target: T25, PKAC-alpha (Homo sapiens, UniProt P17612)
T25 construct: purchased DiscoveRx KINOMEscan

CDKL2 = target: T26, CDKL2 (Homo sapiens, UniProt Q92772)
T26 construct: purchased DiscoveRx KINOMEscan

NIK = target: T27, NIK (Homo sapiens, UniProt Q99558)
T27 construct: purchased DiscoveRx KINOMEscan

ICK = target: T28, ICK (Homo sapiens, UniProt Q9UPZ9)
T28 construct: purchased DiscoveRx KINOMEscan

HPK1 = target: T29, HPK1 (Homo sapiens, UniProt Q92918)
T29 construct: purchased DiscoveRx KINOMEscan

PCTK1 = target: T30, PCTK1 (Homo sapiens, UniProt Q00536)
T30 construct: purchased DiscoveRx KINOMEscan

CAMK4 = target: T31, CAMK4 (Homo sapiens, UniProt Q16566)
T31 construct: purchased DiscoveRx KINOMEscan

MEK5 = target: T32, MEK5 (Homo sapiens, UniProt Q13163)
T32 construct: purchased DiscoveRx KINOMEscan
T32 sequence (Q13163 whole entry): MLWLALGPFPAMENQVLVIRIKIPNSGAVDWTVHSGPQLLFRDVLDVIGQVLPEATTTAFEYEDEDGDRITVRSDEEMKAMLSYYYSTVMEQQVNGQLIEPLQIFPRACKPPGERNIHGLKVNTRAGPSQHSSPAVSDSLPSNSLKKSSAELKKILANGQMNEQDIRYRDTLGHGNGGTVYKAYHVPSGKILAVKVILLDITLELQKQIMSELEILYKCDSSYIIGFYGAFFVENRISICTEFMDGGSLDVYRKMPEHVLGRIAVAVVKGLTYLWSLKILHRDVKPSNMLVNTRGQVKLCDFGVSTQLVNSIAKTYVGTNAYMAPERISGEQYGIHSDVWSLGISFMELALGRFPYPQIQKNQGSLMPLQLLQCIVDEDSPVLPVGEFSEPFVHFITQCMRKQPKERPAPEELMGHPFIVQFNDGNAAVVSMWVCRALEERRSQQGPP

ALK(C1156Y) = target: T33, ALK(C1156Y) (Homo sapiens, UniProt Q9UM73, C1156Y)
T33 construct: purchased DiscoveRx KINOMEscan
T33 sequence (Q9UM73 19-1620 C1156Y): as the sequence (Q9UM73 19-1620 L1196M) above, with C1138Y, M1178L counted along it

DDR2 = target: T34, DDR2 (Homo sapiens, UniProt Q16832)
T34 construct: purchased DiscoveRx KINOMEscan

BIKE = target: T35, BIKE (Homo sapiens, UniProt Q9NSY1)
T35 construct: purchased DiscoveRx KINOMEscan

WEE1 = target: T36, WEE1 (Homo sapiens, UniProt P30291)
T36 construct: purchased DiscoveRx KINOMEscan

PRKCH = target: T37, PRKCH (Homo sapiens, UniProt P24723)
T37 construct: purchased DiscoveRx KINOMEscan

EGFR(T790M) = target: T38, EGFR(T790M) (Homo sapiens, UniProt P00533, T790M)
T38 construct: purchased DiscoveRx KINOMEscan

GRK3 = target: T39, GRK3 (Homo sapiens, UniProt P35626)
T39 construct: purchased DiscoveRx KINOMEscan

p38-gamma = target: T40, p38-gamma (Homo sapiens, UniProt P53778)
T40 construct: purchased DiscoveRx KINOMEscan
T40 sequence (P53778 whole entry): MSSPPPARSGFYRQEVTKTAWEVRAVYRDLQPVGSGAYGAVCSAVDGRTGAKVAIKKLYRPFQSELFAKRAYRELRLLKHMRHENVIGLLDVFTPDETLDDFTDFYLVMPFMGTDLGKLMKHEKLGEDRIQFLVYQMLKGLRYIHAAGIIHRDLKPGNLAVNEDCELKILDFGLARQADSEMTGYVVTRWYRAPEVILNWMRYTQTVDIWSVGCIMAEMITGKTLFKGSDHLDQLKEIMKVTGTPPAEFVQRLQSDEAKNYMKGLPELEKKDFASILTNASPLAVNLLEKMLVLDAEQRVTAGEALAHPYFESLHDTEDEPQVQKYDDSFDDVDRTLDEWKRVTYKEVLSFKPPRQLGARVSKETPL

CIT = target: T41, CIT (Homo sapiens, UniProt O14578)
T41 construct: purchased DiscoveRx KINOMEscan

ACVR2A = target: T42, ACVR2A (Homo sapiens, UniProt P27037)
T42 construct: purchased DiscoveRx KINOMEscan

Work on `CN1CCC(CNc2ccc3ncc(C(=O)Nc4cccc(OC(F)(F)F)c4)n3n2)CC1` [Cpd 2] yielded a remaining binding at 1 µM (RIPK5) of 84%, a remaining binding at 1 µM (RET(V804M)) of 97% and a remaining binding at 1 µM (PDPK1) of 100%. The remaining binding at 1 µM (BLK) was 100%, the remaining binding at 1 µM (EPHA4) was 88% and the remaining binding at 1 µM (PRP4) was 100%. For the same compound, the remaining binding at 1 µM (CDC2L5) was 100%, the remaining binding at 1 µM (RIOK1) was 76% and the remaining binding at 1 µM (MET(M1250T)) was 100%. It also gave a remaining binding at 1 µM (ABL1(T315I)-P) of 100%, a remaining binding at 1 µM (RSK2(KD1-N-t.)) of 89% and a remaining binding at 1 µM (PIK3CA(I800L)) of 81%. For the same compound, the remaining binding at 1 µM (LZK) was 92%, the remaining binding at 1 µM (GCN2(KD2,S808G)) was 73% and the remaining binding at 1 µM (PIK3CA(E545K)) was 87%. It also gave a remaining binding at 1 µM (MAP3K1) of 100%, a remaining binding at 1 µM (LRRK2) of 68% and a remaining binding at 1 µM (CLK4) of 100%. For the same compound, the remaining binding at 1 µM (ALK(L1196M)) was 100%, the remaining binding at 1 µM (BRAF(V600E)) was 100% and the remaining binding at 1 µM (CAMKK2) was 100%. The remaining binding at 1 µM (MST2) was 100%, the remaining binding at 1 µM (MAP4K4) was 89% and the remaining binding at 1 µM (CSNK1A1L) was 95%. The remaining binding at 1 µM (PKAC-alpha) was 99%, the remaining binding at 1 µM (CDKL2) was 98% and the remaining binding at 1 µM (NIK) was 100%. For the same compound, the remaining binding at 1 µM (ICK) was 93%, the remaining binding at 1 µM (HPK1) was 92% and the remaining binding at 1 µM (PCTK1) was 100%. It also gave a remaining binding at 1 µM (CAMK4) of 100%, a remaining binding at 1 µM (MEK5) of 73% and a remaining binding at 1 µM (ALK(C1156Y)) of 85%. It also gave a remaining binding at 1 µM (DDR2) of 89%, a remaining binding at 1 µM (BIKE) of 83% and a remaining binding at 1 µM (WEE1) of 96%. It also gave a remaining binding at 1 µM (PRKCH) of 99%, a remaining binding at 1 µM (EGFR(T790M)) of 96% and a remaining binding at 1 µM (GRK3) of 76%. For the same compound, the remaining binding at 1 µM (p38-gamma) was 91%, the remaining binding at 1 µM (CIT) was 60% and the remaining binding at 1 µM (ACVR2A) was 100%.
